Results taken from ChEMBL document CHEMBL4507293 (2021).

Assays:
[1] = molecular target: Cyclin-dependent kinase 7 (Homo sapiens) (UniProt P50613); conditions: Compound concentration 100.0 nM
[2] = molecular target: Serine/threonine-protein kinase PAK 2 (Homo sapiens) (UniProt Q13177); conditions: Compound concentration 100.0 nM
[3] = molecular target: Mitotic checkpoint serine/threonine-protein kinase BUB1 (Homo sapiens) (UniProt O43683); conditions: Compound concentration 100.0 nM
[4] = molecular target: Calcium/calmodulin-dependent protein kinase type II subunit delta (Homo sapiens) (UniProt Q13557); conditions: Compound concentration 100.0 nM
[5] = molecular target: Serine/threonine-protein kinase PAK 3 (Homo sapiens) (UniProt O75914); conditions: Compound concentration 100.0 nM
[6] = molecular target: Serine/threonine-protein kinase NLK (Homo sapiens) (UniProt Q9UBE8); conditions: Compound concentration 100.0 nM
[7] = test system: Phosphatidylinositol 4,5-bisphosphate 3-kinase catalytic subunit alpha isoform (Homo sapiens), P42336 [H1047Y]; conditions: Compound concentration 100.0 nM
[8] = molecular target: Phosphorylase b kinase regulatory subunit alpha, liver isoform (Homo sapiens) (UniProt P46019); conditions: Compound concentration 100.0 nM
[9] = molecular target: Dual specificity protein kinase CLK3 (Homo sapiens) (UniProt P49761); conditions: Compound concentration 100.0 nM
[10] = molecular target: Dual serine/threonine and tyrosine protein kinase (Homo sapiens) (UniProt Q6XUX3); conditions: Compound concentration 100.0 nM
[11] = molecular target: Ephrin type-A receptor 5 (Homo sapiens) (UniProt P54756); conditions: Compound concentration 100.0 nM
[12] = molecular target: Serine/threonine-protein kinase OSR1 (Homo sapiens) (UniProt O95747); conditions: Compound concentration 100.0 nM
[13] = test system: Tyrosine-protein kinase ABL1 (Homo sapiens), P00519 [T315I]; conditions: Compound concentration 100.0 nM
[14] = molecular target: Serine/threonine-protein kinase DCLK3 (Homo sapiens) (UniProt Q9C098); conditions: Compound concentration 100.0 nM
[15] = test system: Receptor-type tyrosine-protein kinase FLT3 (Homo sapiens), P36888 [UNDEFINED MUTATION]; conditions: Compound concentration 100.0 nM
[16] = molecular target: Serine/threonine-protein kinase PAK 4 (Homo sapiens) (UniProt O96013); conditions: Compound concentration 100.0 nM
[17] = molecular target: Serine/threonine-protein kinase DCLK1 (Homo sapiens) (UniProt O15075); conditions: Compound concentration 100.0 nM
[18] = molecular target: Serine/threonine-protein kinase D2 (Homo sapiens) (UniProt Q9BZL6); conditions: Compound concentration 100.0 nM
[19] = molecular target: Serine/threonine-protein kinase DCLK2 (Homo sapiens) (UniProt Q8N568); conditions: Compound concentration 100.0 nM
[20] = molecular target: Tyrosine-protein kinase receptor UFO (Homo sapiens) (UniProt P30530); conditions: Compound concentration 100.0 nM
[21] = molecular target: G protein-coupled receptor kinase 4 (Homo sapiens) (UniProt P32298); conditions: Compound concentration 100.0 nM
[22] = test system: Epidermal growth factor receptor (Homo sapiens), P00533 [UNDEFINED MUTATION]; conditions: Compound concentration 100.0 nM
[23] = molecular target: Mitogen-activated protein kinase kinase kinase 10 (Homo sapiens) (UniProt Q02779); conditions: Compound concentration 100.0 nM
[24] = molecular target: Mitogen-activated protein kinase 14 (Homo sapiens) (UniProt Q16539); conditions: Compound concentration 100.0 nM
[25] = molecular target: Ephrin type-B receptor 1 (Homo sapiens) (UniProt P54762); conditions: Compound concentration 100.0 nM
[26] = molecular target: Serine/threonine-protein kinase 36 (Homo sapiens) (UniProt Q9NRP7); conditions: Compound concentration 100.0 nM
[27] = molecular target: Serine/threonine-protein kinase ULK2 (Homo sapiens) (UniProt Q8IYT8); conditions: Compound concentration 100.0 nM
[28] = molecular target: Histamine H1 receptor (Homo sapiens) (UniProt P35367); conditions: Compound concentration 10.0 uM
[29] = molecular target: Maternal embryonic leucine zipper kinase (Homo sapiens) (UniProt Q14680); conditions: Compound concentration 100.0 nM
[30] = molecular target: Non-receptor tyrosine-protein kinase TYK2 (Homo sapiens) (UniProt P29597); conditions: Compound concentration 100.0 nM
[31] = molecular target: Death-associated protein kinase 3 (Homo sapiens) (UniProt O43293); conditions: Compound concentration 100.0 nM
[32] = molecular target: Tyrosine-protein kinase ITK/TSK (Homo sapiens) (UniProt Q08881); conditions: Compound concentration 100.0 nM
[33] = test system: Tyrosine-protein kinase ABL1 (Homo sapiens), P00519 [H396P]; conditions: Compound concentration 100.0 nM
[34] = molecular target: Proto-oncogene tyrosine-protein kinase receptor Ret (Homo sapiens) (UniProt P07949); conditions: Compound concentration 100.0 nM
[35] = molecular target: Ribosomal protein S6 kinase alpha-2 (Homo sapiens) (UniProt Q15349); conditions: Compound concentration 100.0 nM
[36] = molecular target: Dual specificity mitogen-activated protein kinase kinase 1 (Homo sapiens) (UniProt Q02750); conditions: Compound concentration 100.0 nM
[37] = test system: Receptor-type tyrosine-protein kinase FLT3 (Homo sapiens), P36888 [D835V]; conditions: Compound concentration 100.0 nM
[38] = molecular target: Calcium/calmodulin-dependent protein kinase type 1D (Homo sapiens) (UniProt Q8IU85); conditions: Compound concentration 100.0 nM
[39] = molecular target: Ankyrin repeat and protein kinase domain-containing protein 1 (Homo sapiens) (UniProt Q8NFD2); conditions: Compound concentration 100.0 nM
[40] = molecular target: Serine/threonine-protein kinase/endoribonuclease IRE1 (Homo sapiens) (UniProt O75460); conditions: Compound concentration 100.0 nM
[41] = molecular target: Dual specificity protein kinase CLK4 (Homo sapiens) (UniProt Q9HAZ1); conditions: Compound concentration 100.0 nM
[42] = molecular target: Calcium/calmodulin-dependent protein kinase kinase 1 (Homo sapiens) (UniProt Q8N5S9); conditions: Compound concentration 100.0 nM
[43] = molecular target: Rhodopsin kinase GRK7 (Homo sapiens) (UniProt Q8WTQ7); conditions: Compound concentration 100.0 nM
[44] = molecular target: Serine/threonine-protein kinase 35 (Homo sapiens) (UniProt Q8TDR2); conditions: Compound concentration 100.0 nM
Serine/threonine-protein kinase 35 (Homo sapiens), sequence (Q8TDR2 whole entry): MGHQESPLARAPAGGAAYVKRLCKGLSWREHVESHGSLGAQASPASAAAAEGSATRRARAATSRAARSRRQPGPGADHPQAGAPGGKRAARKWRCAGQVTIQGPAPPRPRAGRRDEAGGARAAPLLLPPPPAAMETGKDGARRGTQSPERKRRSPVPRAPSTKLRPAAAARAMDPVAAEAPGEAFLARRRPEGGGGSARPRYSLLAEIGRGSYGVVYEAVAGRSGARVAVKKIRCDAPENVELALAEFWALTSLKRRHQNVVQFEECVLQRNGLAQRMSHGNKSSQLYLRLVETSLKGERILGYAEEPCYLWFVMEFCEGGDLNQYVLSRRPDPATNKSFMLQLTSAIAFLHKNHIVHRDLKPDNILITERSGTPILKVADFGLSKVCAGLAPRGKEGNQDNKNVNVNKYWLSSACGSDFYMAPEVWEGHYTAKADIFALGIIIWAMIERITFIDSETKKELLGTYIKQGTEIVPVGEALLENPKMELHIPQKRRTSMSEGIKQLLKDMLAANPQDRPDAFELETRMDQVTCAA

Mitotic checkpoint serine/threonine-protein kinase BUB1 (Homo sapiens), sequence (O43683 whole entry, looked up): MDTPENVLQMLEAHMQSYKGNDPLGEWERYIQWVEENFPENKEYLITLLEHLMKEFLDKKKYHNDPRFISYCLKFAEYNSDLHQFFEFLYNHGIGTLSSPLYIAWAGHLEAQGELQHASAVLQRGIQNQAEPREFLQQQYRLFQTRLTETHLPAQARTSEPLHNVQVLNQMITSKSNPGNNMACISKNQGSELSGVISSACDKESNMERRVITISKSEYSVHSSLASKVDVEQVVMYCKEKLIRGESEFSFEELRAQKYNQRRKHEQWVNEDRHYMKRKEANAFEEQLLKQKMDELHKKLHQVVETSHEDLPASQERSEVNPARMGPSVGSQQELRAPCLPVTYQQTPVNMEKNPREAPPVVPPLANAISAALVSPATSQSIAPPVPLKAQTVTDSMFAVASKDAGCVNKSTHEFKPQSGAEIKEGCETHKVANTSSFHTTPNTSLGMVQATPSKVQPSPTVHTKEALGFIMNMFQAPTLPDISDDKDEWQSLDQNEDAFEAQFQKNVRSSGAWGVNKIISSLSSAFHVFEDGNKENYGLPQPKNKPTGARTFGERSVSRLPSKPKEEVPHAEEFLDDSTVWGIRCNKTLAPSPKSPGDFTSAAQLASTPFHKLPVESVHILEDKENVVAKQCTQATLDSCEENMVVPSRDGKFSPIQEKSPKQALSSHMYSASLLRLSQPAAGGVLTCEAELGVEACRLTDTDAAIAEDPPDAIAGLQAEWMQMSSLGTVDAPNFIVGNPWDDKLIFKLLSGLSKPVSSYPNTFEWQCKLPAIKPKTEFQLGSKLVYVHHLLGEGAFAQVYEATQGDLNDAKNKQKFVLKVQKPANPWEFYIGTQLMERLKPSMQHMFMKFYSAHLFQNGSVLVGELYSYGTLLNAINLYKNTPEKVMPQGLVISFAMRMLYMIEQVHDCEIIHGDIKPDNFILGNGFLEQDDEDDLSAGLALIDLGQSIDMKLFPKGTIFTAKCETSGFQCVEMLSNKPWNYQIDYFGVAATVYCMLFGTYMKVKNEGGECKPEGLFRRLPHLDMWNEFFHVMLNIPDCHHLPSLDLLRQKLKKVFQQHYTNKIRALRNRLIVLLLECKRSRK
Phosphatidylinositol 4,5-bisphosphate 3-kinase catalytic subunit alpha isoform (Homo sapiens), P42336 [H1047Y], sequence (P42336 whole entry H1047Y, canonical isoform): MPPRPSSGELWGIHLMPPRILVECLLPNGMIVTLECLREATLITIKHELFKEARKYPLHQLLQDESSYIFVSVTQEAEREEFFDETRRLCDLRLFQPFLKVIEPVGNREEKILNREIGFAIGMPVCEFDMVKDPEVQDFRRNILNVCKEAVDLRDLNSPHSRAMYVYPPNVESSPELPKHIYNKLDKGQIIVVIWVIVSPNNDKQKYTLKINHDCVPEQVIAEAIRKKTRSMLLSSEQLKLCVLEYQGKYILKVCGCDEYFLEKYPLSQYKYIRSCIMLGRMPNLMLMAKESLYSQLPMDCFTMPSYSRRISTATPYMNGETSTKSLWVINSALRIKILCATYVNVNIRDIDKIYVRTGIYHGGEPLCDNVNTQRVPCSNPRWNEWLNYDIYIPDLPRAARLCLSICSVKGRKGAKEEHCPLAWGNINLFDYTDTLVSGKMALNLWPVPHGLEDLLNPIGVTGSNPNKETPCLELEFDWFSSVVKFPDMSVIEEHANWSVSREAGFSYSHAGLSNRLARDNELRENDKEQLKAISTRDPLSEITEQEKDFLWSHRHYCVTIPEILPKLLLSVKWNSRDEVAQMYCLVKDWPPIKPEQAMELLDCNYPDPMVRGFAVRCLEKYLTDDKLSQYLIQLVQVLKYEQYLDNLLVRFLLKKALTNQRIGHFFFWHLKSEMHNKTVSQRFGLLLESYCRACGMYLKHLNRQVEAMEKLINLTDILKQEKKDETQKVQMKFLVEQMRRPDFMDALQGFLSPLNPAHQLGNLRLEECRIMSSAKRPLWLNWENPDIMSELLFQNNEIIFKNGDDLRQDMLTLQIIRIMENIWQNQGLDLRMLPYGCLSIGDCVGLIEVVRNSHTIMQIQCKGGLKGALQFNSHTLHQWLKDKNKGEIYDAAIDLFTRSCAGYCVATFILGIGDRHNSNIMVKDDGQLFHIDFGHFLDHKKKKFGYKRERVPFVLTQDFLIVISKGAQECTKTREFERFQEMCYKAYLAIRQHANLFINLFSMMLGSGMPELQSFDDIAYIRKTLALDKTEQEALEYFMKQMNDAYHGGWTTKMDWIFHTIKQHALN
Phosphorylase b kinase regulatory subunit alpha, liver isoform (Homo sapiens), sequence (P46019 whole entry, canonical isoform): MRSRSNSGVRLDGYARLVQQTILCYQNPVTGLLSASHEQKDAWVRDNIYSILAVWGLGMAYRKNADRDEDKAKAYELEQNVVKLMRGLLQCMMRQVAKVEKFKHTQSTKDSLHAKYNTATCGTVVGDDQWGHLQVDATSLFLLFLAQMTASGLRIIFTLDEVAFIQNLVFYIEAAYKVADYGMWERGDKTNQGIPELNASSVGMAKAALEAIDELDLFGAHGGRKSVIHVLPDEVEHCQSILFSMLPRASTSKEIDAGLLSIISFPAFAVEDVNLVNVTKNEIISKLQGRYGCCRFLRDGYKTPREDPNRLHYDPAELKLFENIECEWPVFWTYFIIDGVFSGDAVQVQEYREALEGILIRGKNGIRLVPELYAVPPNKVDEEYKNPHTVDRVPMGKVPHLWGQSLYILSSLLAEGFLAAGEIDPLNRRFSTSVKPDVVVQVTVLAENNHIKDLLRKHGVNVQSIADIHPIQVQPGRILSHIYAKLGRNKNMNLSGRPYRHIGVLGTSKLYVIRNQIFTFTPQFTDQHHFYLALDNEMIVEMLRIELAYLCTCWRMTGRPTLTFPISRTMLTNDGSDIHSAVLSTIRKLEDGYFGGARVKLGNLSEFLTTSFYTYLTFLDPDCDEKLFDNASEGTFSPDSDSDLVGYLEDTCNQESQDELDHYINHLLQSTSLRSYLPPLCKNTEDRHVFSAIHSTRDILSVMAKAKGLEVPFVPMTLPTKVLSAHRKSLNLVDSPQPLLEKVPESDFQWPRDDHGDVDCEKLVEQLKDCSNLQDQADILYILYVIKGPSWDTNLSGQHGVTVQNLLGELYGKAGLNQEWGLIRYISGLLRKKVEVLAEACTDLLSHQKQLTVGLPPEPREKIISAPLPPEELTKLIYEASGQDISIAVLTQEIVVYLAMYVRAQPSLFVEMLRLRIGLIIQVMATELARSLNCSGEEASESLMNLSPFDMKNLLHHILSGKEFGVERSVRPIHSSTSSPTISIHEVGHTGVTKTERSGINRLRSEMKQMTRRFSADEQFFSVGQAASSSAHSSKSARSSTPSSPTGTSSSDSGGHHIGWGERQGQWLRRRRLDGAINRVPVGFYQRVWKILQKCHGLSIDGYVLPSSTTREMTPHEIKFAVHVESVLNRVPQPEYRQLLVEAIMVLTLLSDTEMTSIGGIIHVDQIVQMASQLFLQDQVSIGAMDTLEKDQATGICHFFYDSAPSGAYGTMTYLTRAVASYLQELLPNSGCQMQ
Dual specificity protein kinase CLK3 (Homo sapiens), sequence (P49761 whole entry, looked up): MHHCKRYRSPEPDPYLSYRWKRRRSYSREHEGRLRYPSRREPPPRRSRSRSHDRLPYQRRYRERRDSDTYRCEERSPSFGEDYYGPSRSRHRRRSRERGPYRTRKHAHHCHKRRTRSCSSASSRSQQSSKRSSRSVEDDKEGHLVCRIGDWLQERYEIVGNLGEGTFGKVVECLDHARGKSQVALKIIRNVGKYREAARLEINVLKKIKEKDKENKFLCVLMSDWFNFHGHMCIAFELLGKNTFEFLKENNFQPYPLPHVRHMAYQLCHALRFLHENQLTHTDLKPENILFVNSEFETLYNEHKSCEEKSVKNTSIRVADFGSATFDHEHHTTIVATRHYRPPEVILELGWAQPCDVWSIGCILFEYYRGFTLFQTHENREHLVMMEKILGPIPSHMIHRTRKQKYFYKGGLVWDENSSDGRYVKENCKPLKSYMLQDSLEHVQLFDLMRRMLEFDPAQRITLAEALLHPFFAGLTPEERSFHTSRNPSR
Calcium/calmodulin-dependent protein kinase kinase 1 (Homo sapiens), sequence (Q8N5S9 whole entry, looked up): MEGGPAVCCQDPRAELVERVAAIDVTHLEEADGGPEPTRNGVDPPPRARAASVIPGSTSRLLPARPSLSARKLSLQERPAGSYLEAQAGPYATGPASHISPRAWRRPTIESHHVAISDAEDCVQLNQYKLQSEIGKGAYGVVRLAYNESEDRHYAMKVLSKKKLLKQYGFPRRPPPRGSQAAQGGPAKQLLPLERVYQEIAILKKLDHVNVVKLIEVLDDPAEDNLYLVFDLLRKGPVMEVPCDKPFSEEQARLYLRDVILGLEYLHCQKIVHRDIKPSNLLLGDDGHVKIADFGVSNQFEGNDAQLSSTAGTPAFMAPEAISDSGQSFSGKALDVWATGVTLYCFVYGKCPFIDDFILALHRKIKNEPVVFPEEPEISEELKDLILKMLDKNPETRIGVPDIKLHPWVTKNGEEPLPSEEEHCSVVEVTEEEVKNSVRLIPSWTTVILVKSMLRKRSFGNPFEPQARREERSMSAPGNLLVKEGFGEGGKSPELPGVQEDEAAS

COCCOc1nc(-c2ccc(Cl)nc2)nc2c1CN(C(=O)c1ncn3ccccc13)CC2 [THPP-1]
inactive: residual activity [1] 77% | residual activity [2] 100% | residual activity [3] 82% | residual activity [4] 100% | residual activity [5] 100% | residual activity [6] 100% | residual activity [7] 79% | residual activity [8] 100% | residual activity [9] 100% | residual activity [10] 100% | residual activity [11] 99% | residual activity [12] 100% | residual activity [13] 75% | residual activity [14] 100% | residual activity [15] 96% | residual activity [16] 100% | residual activity [17] 100% | residual activity [18] 100% | residual activity [19] 100% | residual activity [20] 90% | residual activity [21] 73% | residual activity [22] 100% | residual activity [23] 100% | residual activity [24] 100% | residual activity [25] 100% | residual activity [26] 79% | residual activity [27] 100% | inhibition [28] 23.9% | residual activity [29] 65% | residual activity [30] 100% | residual activity [31] 100% | residual activity [32] 100% | residual activity [33] 100% | residual activity [34] 88% | residual activity [35] 100% | residual activity [36] 100% | residual activity [37] 100% | residual activity [38] 100% | residual activity [39] 100% | residual activity [40] 100% | residual activity [41] 100% | residual activity [42] 100% | residual activity [43] 91% | residual activity [44] 100%

CC(C)CC(=O)N1CCc2nc(-c3ccc(Br)cc3)nc(N(C)Cc3ccccc3)c2C1 [THPP-1-NC]
inactive: residual activity [1] 65% | residual activity [2] 100% | residual activity [3] 78% | residual activity [4] 100% | residual activity [5] 100% | residual activity [6] 100% | residual activity [7] 76% | residual activity [8] 100% | residual activity [9] 100% | residual activity [10] 100% | residual activity [11] 89% | residual activity [12] 100% | residual activity [13] 100% | residual activity [14] 100% | residual activity [15] 99% | residual activity [16] 100% | residual activity [17] 100% | residual activity [18] 100% | residual activity [19] 100% | residual activity [20] 63% | residual activity [21] 75% | residual activity [22] 100% | residual activity [23] 96% | residual activity [24] 100% | residual activity [25] 100% | residual activity [26] 78% | residual activity [27] 89% | inhibition [28] 12.6% | residual activity [29] 67% | residual activity [30] 100% | residual activity [31] 100% | residual activity [32] 100% | residual activity [33] 100% | residual activity [34] 68% | residual activity [35] 100% | residual activity [36] 100% | residual activity [37] 95% | residual activity [38] 100% | residual activity [39] 100% | residual activity [40] 100% | residual activity [41] 92% | residual activity [42] 100% | residual activity [43] 74% | residual activity [44] 96%
